# Measured values: US3951955A, “Penicillins substituted with heterocyclic groups” (Sumitomo Chemical Company, Limited, priority 1970, dated 1976)
# Tested on: Proteus miravilis 2425
# Test: minimal inhibitory concentration, agar dilution method (in vitro)
# Assay type: cell-based
# Description: (§1) When determined according to the agar dilution method, the penicillins [I] afford the minimal inhibitory concentrations as shown in the following Table 1: […]
row,Structure (SMILES),MIC [µg/mL]
1,CC(=O)Nc1ccc2ncc(C(=O)NC(C(=O)N[C@@H]3C(=O)N4[C@@H]3SC(C)(C)[C@@H]4C(=O)O)c3ccccc3)c(O)c2c1 (some centres unmarked) [Example 23],3.13
2,CCOC(=O)Oc1c(C(=O)NC(C(=O)N[C@@H]2C(=O)N3[C@@H]2SC(C)(C)[C@@H]3C(=O)O)c2ccccc2)cnc2ccc(NC(=O)OCc3ccccc3)cc12 (some centres unmarked) [Example 24],12.5
3,COc1nc(OC)c2c(O)c(C(=O)NC(C(=O)N[C@@H]3C(=O)N4[C@@H]3SC(C)(C)[C@@H]4C(=O)O)c3ccccc3)cnc2n1 (some centres unmarked) [Example 26],3.13
4,CC1(C)S[C@@H]2[C@H](NC(=O)C(NC(=O)c3cnc4cccnc4c3O)c3ccccc3)C(=O)N2[C@H]1C(=O)O (some centres unmarked) [Example 27],3.13
5,COc1ccc2ncc(C(=O)NC(C(=O)N[C@@H]3C(=O)N4[C@@H]3SC(C)(C)[C@@H]4C(=O)O)c3ccccc3)c(O)c2n1 (some centres unmarked) [Example 28],1.56
6,CC1(C)S[C@@H]2[C@H](NC(=O)C(NC(=O)c3cnc4ccc(O)nc4c3O)c3ccccc3)C(=O)N2[C@H]1C(=O)O (some centres unmarked) [Example 29],3.13
7,CC(=O)Nc1ccc2ncc(C(=O)NC(C(=O)N[C@@H]3C(=O)N4[C@@H]3SC(C)(C)[C@@H]4C(=O)O)c3ccccc3)c(O)c2n1 (some centres unmarked) [Example 30],6.25
8,CC(=O)CC(=O)Nc1ccc2ncc(C(=O)NC(C(=O)NC3C(=O)N4C3SC(C)(C)C4C(=O)O)c3ccccc3)c(O)c2n1 (centres unmarked) [Example 31],6.25
9,Cc1ccc2ncc(C(=O)NC(C(=O)NC3C(=O)N4C3SC(C)(C)C4C(=O)O)c3ccccc3)c(O)c2n1 (centres unmarked) [Example 32],1.56
10,Cc1cnc2c(O)c(C(=O)NC(C(=O)NC3C(=O)N4C3SC(C)(C)C4C(=O)O)c3ccccc3)cnc2c1 (centres unmarked) [Example 33],3.13

# Tested on: Staphylococcus aureus 209P
# Test: as above
# Assay type: cell-based
# Description: as §1
row,Structure (SMILES),MIC [µg/mL]
1,CC(=O)Nc1ccc2ncc(C(=O)NC(C(=O)N[C@@H]3C(=O)N4[C@@H]3SC(C)(C)[C@@H]4C(=O)O)c3ccccc3)c(O)c2c1 (some centres unmarked) [Example 23],0.78
2,CCOC(=O)Oc1c(C(=O)NC(C(=O)N[C@@H]2C(=O)N3[C@@H]2SC(C)(C)[C@@H]3C(=O)O)c2ccccc2)cnc2ccc(NC(=O)OCc3ccccc3)cc12 (some centres unmarked) [Example 24],0.39
3,COc1nc(OC)c2c(O)c(C(=O)NC(C(=O)N[C@@H]3C(=O)N4[C@@H]3SC(C)(C)[C@@H]4C(=O)O)c3ccccc3)cnc2n1 (some centres unmarked) [Example 26],0.78
4,CC1(C)S[C@@H]2[C@H](NC(=O)C(NC(=O)c3cnc4cccnc4c3O)c3ccccc3)C(=O)N2[C@H]1C(=O)O (some centres unmarked) [Example 27],0.78
5,COc1ccc2ncc(C(=O)NC(C(=O)N[C@@H]3C(=O)N4[C@@H]3SC(C)(C)[C@@H]4C(=O)O)c3ccccc3)c(O)c2n1 (some centres unmarked) [Example 28],0.78
6,CC1(C)S[C@@H]2[C@H](NC(=O)C(NC(=O)c3cnc4ccc(O)nc4c3O)c3ccccc3)C(=O)N2[C@H]1C(=O)O (some centres unmarked) [Example 29],1.56
7,CC(=O)Nc1ccc2ncc(C(=O)NC(C(=O)N[C@@H]3C(=O)N4[C@@H]3SC(C)(C)[C@@H]4C(=O)O)c3ccccc3)c(O)c2n1 (some centres unmarked) [Example 30],0.78
8,CC(=O)CC(=O)Nc1ccc2ncc(C(=O)NC(C(=O)NC3C(=O)N4C3SC(C)(C)C4C(=O)O)c3ccccc3)c(O)c2n1 (centres unmarked) [Example 31],0.78
9,Cc1ccc2ncc(C(=O)NC(C(=O)NC3C(=O)N4C3SC(C)(C)C4C(=O)O)c3ccccc3)c(O)c2n1 (centres unmarked) [Example 32],0.78
10,Cc1cnc2c(O)c(C(=O)NC(C(=O)NC3C(=O)N4C3SC(C)(C)C4C(=O)O)c3ccccc3)cnc2c1 (centres unmarked) [Example 33],1.56

# Tested on: Escherichia coli NIHJ
# Test: as above
# Assay type: cell-based
# Description: as §1
row,Structure (SMILES),MIC [µg/mL]
1,CC(=O)Nc1ccc2ncc(C(=O)NC(C(=O)N[C@@H]3C(=O)N4[C@@H]3SC(C)(C)[C@@H]4C(=O)O)c3ccccc3)c(O)c2c1 (some centres unmarked) [Example 23],12.5
2,CCOC(=O)Oc1c(C(=O)NC(C(=O)N[C@@H]2C(=O)N3[C@@H]2SC(C)(C)[C@@H]3C(=O)O)c2ccccc2)cnc2ccc(NC(=O)OCc3ccccc3)cc12 (some centres unmarked) [Example 24],12.5
3,COc1nc(OC)c2c(O)c(C(=O)NC(C(=O)N[C@@H]3C(=O)N4[C@@H]3SC(C)(C)[C@@H]4C(=O)O)c3ccccc3)cnc2n1 (some centres unmarked) [Example 26],3.13
4,CC1(C)S[C@@H]2[C@H](NC(=O)C(NC(=O)c3cnc4cccnc4c3O)c3ccccc3)C(=O)N2[C@H]1C(=O)O (some centres unmarked) [Example 27],1.56
5,COc1ccc2ncc(C(=O)NC(C(=O)N[C@@H]3C(=O)N4[C@@H]3SC(C)(C)[C@@H]4C(=O)O)c3ccccc3)c(O)c2n1 (some centres unmarked) [Example 28],1.56
6,CC1(C)S[C@@H]2[C@H](NC(=O)C(NC(=O)c3cnc4ccc(O)nc4c3O)c3ccccc3)C(=O)N2[C@H]1C(=O)O (some centres unmarked) [Example 29],1.56
7,CC(=O)Nc1ccc2ncc(C(=O)NC(C(=O)N[C@@H]3C(=O)N4[C@@H]3SC(C)(C)[C@@H]4C(=O)O)c3ccccc3)c(O)c2n1 (some centres unmarked) [Example 30],3.13
8,CC(=O)CC(=O)Nc1ccc2ncc(C(=O)NC(C(=O)NC3C(=O)N4C3SC(C)(C)C4C(=O)O)c3ccccc3)c(O)c2n1 (centres unmarked) [Example 31],3.13
9,Cc1ccc2ncc(C(=O)NC(C(=O)NC3C(=O)N4C3SC(C)(C)C4C(=O)O)c3ccccc3)c(O)c2n1 (centres unmarked) [Example 32],1.56
10,Cc1cnc2c(O)c(C(=O)NC(C(=O)NC3C(=O)N4C3SC(C)(C)C4C(=O)O)c3ccccc3)cnc2c1 (centres unmarked) [Example 33],3.13

# Tested on: Pseudomonas aeruginosa 104
# Test: as above
# Assay type: cell-based
# Description: as §1
row,Structure (SMILES),MIC [µg/mL]
1,CC(=O)Nc1ccc2ncc(C(=O)NC(C(=O)N[C@@H]3C(=O)N4[C@@H]3SC(C)(C)[C@@H]4C(=O)O)c3ccccc3)c(O)c2c1 (some centres unmarked) [Example 23],12.5
2,CCOC(=O)Oc1c(C(=O)NC(C(=O)N[C@@H]2C(=O)N3[C@@H]2SC(C)(C)[C@@H]3C(=O)O)c2ccccc2)cnc2ccc(NC(=O)OCc3ccccc3)cc12 (some centres unmarked) [Example 24],12.5
3,COc1nc(OC)c2c(O)c(C(=O)NC(C(=O)N[C@@H]3C(=O)N4[C@@H]3SC(C)(C)[C@@H]4C(=O)O)c3ccccc3)cnc2n1 (some centres unmarked) [Example 26],3.13
4,CC1(C)S[C@@H]2[C@H](NC(=O)C(NC(=O)c3cnc4cccnc4c3O)c3ccccc3)C(=O)N2[C@H]1C(=O)O (some centres unmarked) [Example 27],3.13
5,COc1ccc2ncc(C(=O)NC(C(=O)N[C@@H]3C(=O)N4[C@@H]3SC(C)(C)[C@@H]4C(=O)O)c3ccccc3)c(O)c2n1 (some centres unmarked) [Example 28],3.13
6,CC1(C)S[C@@H]2[C@H](NC(=O)C(NC(=O)c3cnc4ccc(O)nc4c3O)c3ccccc3)C(=O)N2[C@H]1C(=O)O (some centres unmarked) [Example 29],3.13
7,CC(=O)Nc1ccc2ncc(C(=O)NC(C(=O)N[C@@H]3C(=O)N4[C@@H]3SC(C)(C)[C@@H]4C(=O)O)c3ccccc3)c(O)c2n1 (some centres unmarked) [Example 30],6.25
8,CC(=O)CC(=O)Nc1ccc2ncc(C(=O)NC(C(=O)NC3C(=O)N4C3SC(C)(C)C4C(=O)O)c3ccccc3)c(O)c2n1 (centres unmarked) [Example 31],6.25
9,Cc1ccc2ncc(C(=O)NC(C(=O)NC3C(=O)N4C3SC(C)(C)C4C(=O)O)c3ccccc3)c(O)c2n1 (centres unmarked) [Example 32],3.13
10,Cc1cnc2c(O)c(C(=O)NC(C(=O)NC3C(=O)N4C3SC(C)(C)C4C(=O)O)c3ccccc3)cnc2c1 (centres unmarked) [Example 33],6.25

# Tested on: Klebsiella pneumoniae 602
# Test: as above
# Assay type: cell-based
# Description: as §1
row,Structure (SMILES),MIC [µg/mL]
1,CC(=O)Nc1ccc2ncc(C(=O)NC(C(=O)N[C@@H]3C(=O)N4[C@@H]3SC(C)(C)[C@@H]4C(=O)O)c3ccccc3)c(O)c2c1 (some centres unmarked) [Example 23],3.13
2,CCOC(=O)Oc1c(C(=O)NC(C(=O)N[C@@H]2C(=O)N3[C@@H]2SC(C)(C)[C@@H]3C(=O)O)c2ccccc2)cnc2ccc(NC(=O)OCc3ccccc3)cc12 (some centres unmarked) [Example 24],1.56
3,COc1nc(OC)c2c(O)c(C(=O)NC(C(=O)N[C@@H]3C(=O)N4[C@@H]3SC(C)(C)[C@@H]4C(=O)O)c3ccccc3)cnc2n1 (some centres unmarked) [Example 26],3.13
4,CC1(C)S[C@@H]2[C@H](NC(=O)C(NC(=O)c3cnc4cccnc4c3O)c3ccccc3)C(=O)N2[C@H]1C(=O)O (some centres unmarked) [Example 27],6.25
5,COc1ccc2ncc(C(=O)NC(C(=O)N[C@@H]3C(=O)N4[C@@H]3SC(C)(C)[C@@H]4C(=O)O)c3ccccc3)c(O)c2n1 (some centres unmarked) [Example 28],3.13
6,CC1(C)S[C@@H]2[C@H](NC(=O)C(NC(=O)c3cnc4ccc(O)nc4c3O)c3ccccc3)C(=O)N2[C@H]1C(=O)O (some centres unmarked) [Example 29],3.13
7,CC(=O)Nc1ccc2ncc(C(=O)NC(C(=O)N[C@@H]3C(=O)N4[C@@H]3SC(C)(C)[C@@H]4C(=O)O)c3ccccc3)c(O)c2n1 (some centres unmarked) [Example 30],3.13
8,CC(=O)CC(=O)Nc1ccc2ncc(C(=O)NC(C(=O)NC3C(=O)N4C3SC(C)(C)C4C(=O)O)c3ccccc3)c(O)c2n1 (centres unmarked) [Example 31],6.25
9,Cc1ccc2ncc(C(=O)NC(C(=O)NC3C(=O)N4C3SC(C)(C)C4C(=O)O)c3ccccc3)c(O)c2n1 (centres unmarked) [Example 32],3.13
10,Cc1cnc2c(O)c(C(=O)NC(C(=O)NC3C(=O)N4C3SC(C)(C)C4C(=O)O)c3ccccc3)cnc2c1 (centres unmarked) [Example 33],3.13
